Test results reported in US6982348B2, “Aminoethanol derivatives” (Takeda Pharmaceutical Company Limited, priority 2001, dated 2006).

Row | SMILES | melting point [°C]
1 | CC(C)(C)OC(=O)N[C@H](Cc1ccc(C#N)cc1)[C@@H](O)c1ccc(F)cc1 (racemic) [Example 152, tert-butyl N-[(1RS,2SR)-1-(4-cyanobenzyl)-2-(4-fluorophenyl)-2-hydroxyethyl]carbamate] | 203 to 204
2 | O=C(CC1CCCC1)N[C@H](Cc1ccc(C(F)(F)F)cc1)[C@@H](O)c1ccc(F)cc1 (racemic) [Example 44, 2-cyclopentyl-N-[(1RS,2SR)-2-(4-fluorophenyl)-2-hydroxy-1-[4-(trifluoromethyl)benzyl]ethyl]acetamide] | 195 to 196
3 | CCCCc1ccc(C(=O)NC(Cc2ccc(C(F)(F)F)cc2)C(O)c2ccc(F)cc2)cc1 (racemic) [Example 13, 4-butyl-N-[2-(4-fluorophenyl)-2-hydroxy-1-[[4-(trifluoromethyl)phenyl]methyl]ethyl]benzamide] | 138 to 158
4 | CC(C)(C)c1ccc(C[C@@H](NC(=O)c2ccc(F)c3ccccc23)[C@@H](O)c2ccc(F)cc2)cc1 (racemic) [Example 357, N-[(1RS,2SR)-1-(4-tert-butylbenzyl)-2-(4-fluorophenyl)-2-hydroxyethyl]-4-fluoro-1-naphthamide] | 149 to 150
5 | N#Cc1ccc(C(=O)N[C@H](Cc2ccc(C(F)(F)F)cc2)[C@@H](O)c2ccc(F)cc2)c2ccccc12 (racemic) [Example 54, 4-cyano-N-[(1RS,2SR)-2-(4-fluorophenyl)-2-hydroxy-1-[4-(trifluoromethyl)benzyl]ethyl]naphthalene-1-carboxamide] | 199 to 201
6 | O=C(N[C@H](Cc1ccc(C(F)(F)F)cc1)[C@@H](O)c1ccc(F)cc1)c1ccc(CCc2ccc(Cl)cc2)cc1 (racemic) [Example 92, 4-[2-(4-chlorophenyl)ethyl]-N-[(1RS,2SR)-2-(4-fluorophenyl)-2-hydroxy-1-[4-(trifluoromethyl)benzyl]ethyl]benzenecarboxamide] | 211 to 212
7 | O=C(Cc1ccccc1)N[C@H](Cc1ccc(C(F)(F)F)cc1)[C@@H](O)c1ccc(F)cc1 (racemic) [Example 69, N-((1RS,2SR)-2-(4-fluorophenyl)-2-hydroxy-1-((4-(trifluoromethyl)phenyl)methyl)ethyl)-2-phenylacetamide] | 173 to 174
8 | O=C(N[C@H](Cc1ccc(F)cc1)[C@@H](O)c1ccc(F)cc1)C1CCCCC1 (racemic) [Example 146, N-((1RS,2SR)-2-(4-fluorophenyl)-1-((4-fluorophenyl)methyl)-2-hydroxyethyl)cyclohexanecarboxamide] | 203 to 204
9 | NC(=O)c1ccc(C(=O)N[C@H](Cc2ccc(C(F)(F)F)cc2)[C@@H](O)c2ccc(F)cc2)c2ccccc12 (racemic) [Example 104, N1-[(1RS,2SR)-2-(4-fluorophenyl)-2-hydroxy-1-[4-(trifluoromethyl)benzyl]ethyl]naphthalene-1,4-dicarboxamide] | 255 to 256
10 | CC(C)C(F)(F)Cc1ccc(C[C@@H](NC(=O)OC(C)(C)C)[C@@H](O)c2cccc(Cl)c2)cc1 (racemic) [Example 352, tert-butyl N-[(1RS,2SR)-2-(3-chlorophenyl)-1-[4-(2,2-difluoro-3-methylbutyl)benzyl]-2-hydroxyethyl]carbamate] | 139 to 141
11 | COCc1ccc(C(=O)N[C@H](Cc2ccc(C(F)(F)F)cc2)[C@@H](O)c2ccc(F)cc2)c2ccccc12 (racemic) [Example 65, N-((1RS,2SR)-2-(4-fluorophenyl)-2-hydroxy-1-((4-(trifluoromethyl)phenyl)methyl)ethyl)-4-((methyloxy)methyl)-1-naphthalenecarboxamide] | 170 to 171
12 | O=C(N[C@H](Cc1ccc(C(F)(F)F)cc1)[C@@H](O)c1ccc(Cl)s1)c1ccc(F)c2ccccc12 (racemic) [Example 197, N-[(1RS,2RS)-2-(5-chloro-2-thienyl)-2-hydroxy-1-[4-(trifluoromethyl)benzyl]ethyl]-4-fluoronaphthalene-1-carboxamide] | 201 to 203

Continued, values first:

Row | melting point [°C] | SMILES
13 | 184 to 185 | O=C(N[C@H](Cc1ccc2c(c1)OC(F)(F)C(F)(F)O2)[C@@H](O)c1ccc(F)cc1)c1cccc2c1C=CCCC2 (racemic) [Example 270, N-{(1RS,2SR)-2-(4-fluorophenyl)-2-hydroxy-1-[(2,2,3,3-tetrafluoro-2,3-dihydro-1,4-benzodioxin-6-yl)methyl]ethyl}-6,7-dihydro-5H-benzo[a][7]annulene-1-carboxamide]
14 | 174 to 175 | O=C(N[C@H](Cc1cccc(CC(F)(F)C(F)F)c1)[C@@H](O)c1ccc(F)cc1)c1cccc2c(Cl)cccc12 (racemic) [Example 340, 5-chloro-N-[(1RS,2SR)-2-(4-fluorophenyl)-2-hydroxy-1-[3-(2,2,3,3-tetrafluoropropyl)benzyl]ethyl]naphthalene-1-carboxamide]
15 | 115 to 116 | CC1(C)CC=Cc2c(cccc2C(=O)N[C@H](Cc2cccc(OC(F)(F)C(F)F)c2)[C@@H](O)c2ccc(F)cc2)C1 (racemic) [Example 288, N-[(1RS,2SR)-2-(4-fluorophenyl)-2-hydroxy-1-[3-(1,1,2,2-tetrafluoroethoxy)benzyl]ethyl]-6,6-dimethyl-6,7-dihydro-5H-benzo[a]cycloheptene-1-carboxamide]
16 | 215 to 217 | CC(C)NC(=O)c1ccc([C@H](O)[C@@H](Cc2cccc(OC(F)(F)C(F)F)c2)NC(=O)c2cccc3c2C=CCCC3)cc1 (racemic) [Example 315, N-[(1RS,2SR)-2-hydroxy-2-[4-[(isopropylamino)carbonyl]phenyl]-1-[3-(1,1,2,2-tetrafluoroethoxy)benzyl]ethyl]-6,7-dihydro-5H-benzo[a]cycloheptene-1-carboxamide]
17 | 170 to 172 | O=C(N[C@H](Cc1cccc(OC(F)(F)C(F)F)c1)[C@@H](O)c1ccc(Cl)nc1)c1cccc2c1C=CCCC2 (racemic) [Example 329, N-[(1RS,2SR)-2-(6-chloropyridin-3-yl)-2-hydroxy-1-[3-(1,1,2,2-tetrafluoroethoxy)benzyl]ethyl]-6,7-dihydro-5H-benzo[a]cycloheptene-1-carboxamide]
18 | 172 to 173 | O=C(N[C@H](Cc1cccc(OC(F)(F)C(F)F)c1)[C@@H](O)c1ccc(-c2ccccc2Cl)cc1)c1cccc2c1C=CCCC2 (racemic) [Example 293, N-[(1RS,2SR)-2-(2′-chloro[1,1′-biphenyl]-4-yl)-2-hydroxy-1-[3-(1,1,2,2-tetrafluoroethoxy)benzyl]ethyl]-6,7-dihydro-5H-benzo[a]cycloheptene-1-carboxamide]
19 | 122 to 123 | O=C(N[C@H](Cc1cccc(OC(F)(F)C(F)F)c1)[C@@H](O)c1ccc(-c2ccccc2)cc1)c1cccc2c1C=CCCC2 (racemic) [Example 291, N-[(1RS,2SR)-2-(1,1′-biphenyl-4-yl)-2-hydroxy-1-[3-(1,1,2,2-tetrafluoroethoxy)benzyl]ethyl]-6,7-dihydro-5H-benzo[a]cycloheptene-1-carboxamide]
20 | 184 to 185 | O=C(N[C@H](Cc1cccc(OC(F)(F)C(F)F)c1)[C@@H](O)c1ccc(Br)cc1)c1cccc2c1C=CCCC2 (racemic) [Example 290, N-[(1RS,2SR)-2-(4-bromophenyl)-2-hydroxy-1-[3-(1,1,2,2-tetrafluoroethoxy)benzyl]ethyl]-6,7-dihydro-5H-benzo[a]cycloheptene-1-carboxamide]
21 | 178 to 179 | O=C(N[C@H](Cc1cccc(OC(F)(F)C(F)F)c1)[C@@H](O)c1ccc(-c2cccc(CO)c2)cc1)c1cccc2c1C=CCCC2 (racemic) [Example 303, N-[(1RS,2SR)-2-[3′-(hydroxymethyl)[1,1′-biphenyl]-4-yl]-2-hydroxy-1-[3-(1,1,2,2-tetrafluoroethoxy)benzyl]ethyl]-6,7-dihydro-5H-benzo[a]cycloheptene-1-carboxamide]
22 | 104 to 106 | O=C(N[C@H](Cc1cccc(OC(F)(F)C(F)F)c1)[C@@H](O)c1ccc(CN2CCCCC2)cc1)c1cccc2c1C=CCCC2 (racemic) [Example 327, N-[(1RS,2SR)-2-hydroxy-2-[4-(piperidinomethyl)phenyl]-1-[3-(1,1,2,2-tetrafluoroethoxy)benzyl]ethyl]-6,7-dihydro-5H-benzo[a]cycloheptene-1-carboxamide]
23 | 202 to 203 | O=C(N[C@H](Cc1ccc(OC(F)(F)F)cc1)[C@@H](O)c1ccc(F)cc1)c1cccc2c1C=CCCC2 (racemic) [Example 135, N-[(1RS,2SR)-2-(4-fluorophenyl)-2-hydroxy-1-[4-(trifluoromethoxy)benzyl]ethyl]-6,7-dihydro-5H-benzo[a]cycloheptene-1-carboxamide]
24 | 178 to 179 | O=C(N[C@H](Cc1cccc(OC(F)(F)C(F)F)c1)[C@@H](O)c1ccc(-c2ccsc2)cc1)c1cccc2c1C=CCCC2 (racemic) [Example 292, N-[(1RS,2SR)-2-hydroxy-1-[3-(1,1,2,2-tetrafluoroethoxy)benzyl]-2-[4-(3-thienyl)phenyl]ethyl]-6,7-dihydro-5H-benzo[a]cycloheptene-1-carboxamide]
25 | 193 to 194 | COc1ccc2c(C(=O)N[C@H](Cc3ccc(C(F)(F)F)cc3)[C@@H](O)c3ccc(F)cc3)cccc2c1 (racemic) [Example 56, N-((1RS,2SR)-2-(4-fluorophenyl)-2-hydroxy-1-((4-(trifluoromethyl)phenyl)methyl)ethyl)-6-(methyloxy)-1-naphthalenecarboxamide]
26 | 160 to 161 | O=C(N[C@H](Cc1cccc(OC(F)(F)C(F)F)c1)[C@@H](O)c1cccc(Cl)c1)c1cccc2c1C=CCCC2 (racemic) [Example 237, N-{(1RS,2SR)-2-(3-chlorophenyl)-2-hydroxy-1-[3-(1,1,2,2-tetrafluoroethoxy)benzyl]ethyl}-6,7-dihydro-5H-benzo[a][7]annulene-1-carboxamide]
27 | 241 to 242 | O=C(N[C@H](Cc1ccc(C(F)(F)F)cc1)[C@@H](O)c1ccc(F)cc1)c1ccc(F)c2c1CCCC2 (racemic) [Example 31, 4-fluoro-N-[(1RS,2SR)-2-(4-fluorophenyl)-2-hydroxy-1-[4-(trifluoromethyl)benzyl]ethyl]-5,6,7,8-tetrahydronaphthalene-1-carboxamide]
